# Source: publication PMC9797592, “TJ-M2010-5, a novel CNS drug candidate, attenuates acute cerebral ischemia-reperfusion injury through the MyD88/NF-κB and ERK pathway” (Frontiers in Pharmacology, 2022)
# Experiments:
# [1] = system: CIRI mice; assay: MCAO cerebral ischemia-reperfusion injury model: neurological deficit score and TTC infarct volume; format: in vivo, C57BL/6 mice
# Description: Male C57BL/6 mice (Beijing Vital River Laboratory Animal Technology Co. Ltd., Beijing, China) weighing 22–28 g and aged 8–10 weeks were used. All animal experiments were approved by the Institutional Animal Care and Use Committee of Tongji Hospital (Wuhan, China). All procedures were performed in accordance with specific pathogen-free standards. Mice were randomly divided into the following seven groups: sham, I/R, vehicle (I/R + saline), I/R + TJ-5 (5 mg/kg), I/R + TJ-5 (10 mg/kg), I/R + TJ-5 (15 mg/kg), and I/R + edaravone (3 mg/kg).
# The mice were anesthetized with 1% pentobarbital sodium solution via intraperitoneal injection, and the body temperature was maintained at 37.0°C–37.5°C. The middle cerebral artery occlusion (MCAO) model was established according to the Longa method, as described previously ([Longa et al., 1989]). In brief, the right carotid artery was carefully separated and exposed. A silicon-coated embolic suture (Doccol, United States) was inserted slowly from the external carotid artery (ECA) into the internal carotid artery (ICA) until it reached the middle cerebral artery (MCA). After 1 h of ischemia, the embolic suture was withdrawn. The surgical procedure in the sham group was the same as that in the I/R group, but the MCA was not obstructed.
# After 24 h of reperfusion, each group of mice was scored blindly, according to the scoring system of the Longa method ([Longa et al., 1989]). The score was 0 for no obvious neurological deficit, one for inability to fully extend the left forelimb, two for turning to the left, three for leaning to the left while walking, and four for the inability to walk spontaneously and impaired consciousness.
# The mice were sacrificed 24 h after I/R. Mouse brains were harvested for the measurement of cerebral infarct volume. The brains were frozen at −80°C for 5 min and cut into five 2-mm thick slices. The slices were then placed in a small dish, 2% 2,3,5-triphenyltetrazolium chloride (TTC) solution (Sigma, United States) was added, and 4% paraformaldehyde was used for fixation. Images were captured using a digital camera. ImageJ software was used to measure the volume of the brain infarction.
# [2] = system: CIRI mice; assay: Flow cytometry of immune cells isolated from the ischemic brain hemisphere; format: in vivo, C57BL/6 mice; settings: TJ-5 injected at the time of reperfusion
# Description: After the mice were anesthetized, 0.9% saline was used for transcardial perfusion. The right brain hemispheres were homogenized in a 6-well plate using 2 ml Hank’s balanced salt solution (HBSS, Solarbio) per well. Collagenase IV (1 mg/ml) was added to […]. The brain homogenate was filtered through a 70 μm cell strainer and centrifuged at 300 g for 5 min at 4°C. Then, 2 ml of 30% Percoll (Sigma) were added to resuspend the brain cell precipitate, and the resuspended cells were slowly added to a 15 ml centrifuge tube containing 3 ml of 70% Percoll. The intermediate layer cells were analyzed by flow cytometry after density-gradient centrifugation.
# Approximately 5 × 10^5 cells were suspended in 200 μL HBSS, and anti-mouse CD16/CD32 (5 ng/μL) was used to block Fc receptor binding. The cells were stained with allophycocyanin-conjugated CD45 antibody (1 ng/μL), FITC-conjugated CD11b antibody (1 ng/μL), and phycoerythrin-conjugated Ly6G antibody (1 ng/μL) and incubated in the dark at 4°C for 30 min. Finally, the cells were washed with HBSS buffer, resuspended in 200 μL of HBSS, and analyzed using a flow cytometer (BD FACSCalibur).
# [3] = system: OGD/R-induced SH-SY5Y cells; assay: OGD/R-induced SH-SY5Y cell apoptosis, Annexin V/PI flow cytometry; format: cell-based; settings: OGD 4 h / R 24 h with TJ-5
# Description: The oxygen glucose deprivation/reoxygenation (OGD/R)-induced SH-SY5Y cell model was established to mimic CIRI as previously described ([Dong et al., 2021]). Briefly, SH-SY5Y cells were cultured in glucose-free Dulbecco’s Modified Eagle Medium, and the flasks were placed inside an incubator (1% O2, 94% N2, 5% CO2) for 4 h. OGD cells were then incubated in standard culture conditions with or without TJ-5 for 24 h of reperfusion. OGD 4 h/R 24 h SH-SY5Y cells were harvested, and the Annexin V/PI Apoptosis Kit (Multi- Science Biotech, China) was used to detect apoptosis by flow cytometry.
smiles,measurement,setting,value
O=C(CCN1CCN(Cc2ccccc2)CC1)Nc1nc(-c2ccccc2)cs1 [TJ-5],percentage of infarct volume,"[1]; TJ-5 15 mg/kg i.v. at 1 h of ischemia, 24 h reperfusion, TTC, I/R group 34.24%",8.47%
same,neurological deficit score,"[1]; TJ-5 15 mg/kg vs I/R group, 24 h reperfusion, Longa score",significantly lower
same,infarct volume,"[1]; intravenous TJ-5 at 4 h reperfusion, TTC at 24 h after reperfusion",effectively reduced infarct volume
same,number of brain-infiltrating CD11b+CD45hi myeloid cells,[2],reduced the number
same,proportion of inactive microglia (CD11b+CD45int),[2],increased the proportion
same,apoptosis of OGD/R-induced SH-SY5Y cells,[3],significantly reduced apoptosis
